Assays:
[1] = solubility in propionic acid; details: using cyclododecene in the present process
Method: A reactor system consisting of a jacketed 1 inch, 10 tray glass Oldershaw column, 250 cc bottom receiver, feed pump, and recycle pump were assembled. The initial feed material consisted of 102 g. of propionic acid solvent and 18 g. of cyclododecene. 120 g. of the initial feed material were charged into the reactor system. The temperature of the jacket on the Oldershaw column was adjusted to 20° C. and a recycle flow of 50 cc/min. was established using the recycle pump. An ClearWater Tech modelM-1500 ozone generator was attached to the system. A carrier gas consisting of 20% oxygen in carbon dioxide was fed to the reactor at 2000 cc/min. The gas exit the ozone generator was measured to contain 0.80% ozone. […] At that point, the additional 18 g. of pure CDDM solution was fed to the top of the column at a rate of 00.15 cc/min. The balance between the ozone and the cyclododecene fed allowed an excess of ozone in the reactor off gas at all times.

[2] = disclosed in Maggiolo patent; cited from earlier work

SMILES | ozonide solubility in propionic acid [1] | solubility in isobutyric acid [2] [%]
C1CCCCCC2OOC(CCCC1)O2 [ozonide, cyclododecene ozonide] | about 27.5% | 
C1=CCCCCCC1 [cyclooctene] |  | 20
